Assay results from patent US11685739B2, “High penetration drugs and their compositions thereof for treatment of Parkinson diseases” (TECHFIELDS PHARMA CO., LTD, priority 2013, dated 2023).
Where a name gives a salt, the structure may show the parent alone. Read-outs that look alike come from different tables or passages of the source.

How the values were obtained:
[1] = system: motor function deficits induced by 6-OHDA in Parkinson's disease (PD) model; test: Rotarod test in rats with 6-OHDA lesion, Parkinson's disease (PD) model; assay type: in vivo, Sprague-Dawley rats; details: for Efficacy in Rotarod test comparing to vehicle group and positive control group: four-week treatment; for Efficacy of low dose compared with moderate and high dose groups: 0.67 mg/kg transdermal (group 3) vs 2 mg and 6 mg/kg (groups 4 and 5)
[2] = Penetration rates through human skin in vitro, modified Franz cells; details: through human skin (360-400 μm), receiving fluid pH 7.4 phosphate buffer (0.2 M)
[3] = human, pH 7.4
[4] = system: motor function deficits induced by 6-OHDA in Parkinson's disease (PD) model; test: Rotarod test in rats with 6-OHDA lesion, Parkinson's disease (PD) model; assay type: in vivo, Sprague-Dawley rats; details: Example 31
Experimental: Test subjects (Sprague-Dawley rats) were prepared, grouped, and tested following the protocol below: • 1. 200 Sprague-Dawley rats (male, 200-230 g) underwent brain stereotaxic surgery after 1 week acclamation in animal facility; • 2. After anesthesia, a bur hole (1 mm in diameter) was made on skull on the left side with a motor drill based on the coordinates: AP +0.5 mm, ML −2.8 mm, DV 6.0 mm relative to Bregma; • 3. 6-OHDA (20 μg at 5 mg/mL) or sterile saline was injected into the left striatum with a microsyringe fitted with a 26-gauge steel cannula. The chemical caused the retrograde neurodegeneration in the distal substantia nigra and impairs dopamine transmission in the nigro-striatal pathway, which eventually led to functional disturbance of motor activities; • 4. Apomorphine and classic rotation test was carried out to screen animals at the end of week 3 post 6-OHDA treatment. Animals that matched lesion type and apomorphine-induced rotational scores were allotted to 11 groups; and • 5. Rats were divided into 11 groups (n=12), each group was applied with the drug(s) at the doses specified in Table 2:
• 6. Dose Formulations • (1) L-DOPA in water (3 mg/mL) was the positive control solution for group 1 (orally for group 1, transdermally for groups 2-11). The volume of administration was 2 mL/kg. Vehicle solution (negative control solution for group 2) was 30% ethanol (v/v). The volume of administration was 1286 μL/kg. Other test solutions (groups 3-11) were freshly prepared every day. • (2) Preparation method of test solutions for groups 3-5: 50.33 mg of Drug A was dissolved in 10 mL of 30% ethanol(v/v). This solution was the stock solution[(2)a]. • a. The test solution for group 5 (high dose group) of Drug A: The stock solution [(2)a] was the test solution for Group 5. The volume of administration was 1286 μL/kg. • b. The test solution for group 4 (moderate dose group) of Drug A: 3.00 mL of the stock solution [(2)a] was diluted to final volume 9.00 mL with 30% ethanol(v/v). This solution was the test solution for Group 4. The volume of administration was 1286 μL/kg. • c. […]

C[C@@](Cc1ccc(O)c(O)c1)(NN)C(=O)O [carbidopa]
Effect on efficacy of L-Dopa and pro-drug of L-Dopa (Drug A) treated groups ([1]; Example 32, carbidopa 1.5 mg/kg orally, groups 1, 3, 4, 5, 6, 7, 9, 10, 4 weeks treatment): increased efficacy
Effect on efficacy of vehicle group and pro-drug of aspirin (Drug B) treated groups ([1]; Example 32, carbidopa 1.5 mg/kg orally, groups 2, 8 and 11, 4 weeks treatment): did not change the efficacy
Effect on efficacy of L-Dopa and pro-drug of L-Dopa treated groups ([1]; Example 34, carbidopa 1.5 mg/kg orally, groups 1, 3, 4, 5, 6, 7, 9, 10 (L-DOPA, Drug C), 4 weeks treatment): increased efficacy
Effect on efficacy of vehicle group and pro-drug of ibuprofen treated groups ([1]; Example 34, carbidopa 1.5 mg/kg orally, groups 2, 8 and 11 (Drug D), 4 weeks treatment): did not change the efficacy

CC(=O)O.CCN(CC)CCOC(=O)C(C)c1ccc(CC(C)C)cc1 (stereo not shown) [Drug D, 2-(diethylamino)ethyl 2-(4-isobutylphenyl)propionate acetic acid salt]
Efficacy in Rotarod test comparing to vehicle group and positive control group ([1]; Example 33, 15 mg and 45 mg/kg transdermal): good efficacy

CC(C)Cc1ccc(C(C)C(=O)O)cc1 (stereo not shown) [Compound-33, 2-(ρ-isobutylphenyl)propionic acid]
The cumulative amount of test compounds ([2]; 1 h): 0.001 mg
The cumulative amount of test compounds ([2]; 2 h): 0.001 mg
The cumulative amount of test compounds ([2]; 4 h): 0.002 mg
The cumulative amount of test compounds ([2]; 8 h): 0.003 mg

CCN(CC)CCOC(=O)c1ccccc1OC(C)=O.Cl [Compound-29, 2-(diethylamino)ethyl 2-acetoxybenzoate hydrochloride]
The cumulative amount of test compounds ([3]; 1 h): 1.08 mg
The cumulative amount of test compounds ([3]; 2 h): 2.13 mg
The cumulative amount of test compounds ([3]; 4 h): 4.27 mg
The cumulative amount of test compounds ([3]; 8 h): 8.48 mg
Efficacy in Rotarod test comparing to vehicle group and positive control group ([4]; 30 mg and 90 mg/kg transdermal, three-week treatment): good efficacy

CCCN(CCC)CCOC(=O)c1cc(-c2ccc(F)cc2F)ccc1OC(C)=O.Cl [Compound-27, 2-(dipropylamino)ethyl 4-acetoxy-2′,4′-difluoro-[1,1′-biphenyl]-3-carboxylate hydrochloride]
The cumulative amount of test compounds ([3]; 1 h): 1.01 mg
The cumulative amount of test compounds ([3]; 2 h): 2.03 mg
The cumulative amount of test compounds ([3]; 4 h): 4.11 mg
The cumulative amount of test compounds ([3]; 8 h): 8.25 mg
Efficacy in Rotarod test comparing to vehicle group and positive control group ([1]; Example 36, 15 mg and 45 mg/kg transdermal): good efficacy

CC(C)OC(=O)[C@@H](N)Cc1ccc(OC(=O)c2ccccc2)c(OC(=O)c2ccccc2)c1.Cl [Compound-11, (S)-4-(2-amino-3-isopropoxy-3-oxopropyl)-1,2-phenylene dibenzoate hydrochloride]
The cumulative amount of test compounds ([3]; 1 h): 0.58 mg
The cumulative amount of test compounds ([3]; 2 h): 1.15 mg
The cumulative amount of test compounds ([3]; 4 h): 2.33 mg
The cumulative amount of test compounds ([3]; 8 h): 4.71 mg
Side effects (dyskinesia at peak dose, end-of-dose deterioration of function etc.) ([4]; L-DOPA orally, pro-drug transdermally): avoided dyskinesia at peak dose, and end-of-dose deterioration of function
Efficacy of low dose compared with moderate and high dose groups ([1]; Example 31): much higher than that of the moderate and high dose groups

Br.CCC(CC)OC(=O)[C@@H](N)Cc1ccc(OC(=O)C(C)C)c(OC(=O)C(C)C)c1 [Compound-15, (S)-4-(2-amino-3-oxo-3-(pentan-3-yloxy)propyl)-1,2-phenylene bis(2-methylpropanoate) hydrobromide]
The cumulative amount of test compounds ([3]; 1 h): 0.55 mg
The cumulative amount of test compounds ([3]; 2 h): 1.08 mg
The cumulative amount of test compounds ([3]; 4 h): 2.23 mg
The cumulative amount of test compounds ([3]; 8 h): 4.41 mg
Efficacy of low dose compared with moderate and high dose groups ([1]; Example 33): much higher than that of the moderate and high dose groups
Side effects (dyskinesia at peak dose, end-of-dose deterioration of function etc.) ([1]; Example 33, L-DOPA orally, pro-drug transdermally): avoided dyskinesia at peak dose, and end-of-dose deterioration of function

Cl.NCCc1ccc(O)c(O)c1 [Compound-30, 4-(2-aminoethyl)benzene-1,2-diol hydrochloride]
The cumulative amount of test compounds ([2]; 1 h): 0.12 mg
The cumulative amount of test compounds ([2]; 2 h): 0.25 mg
The cumulative amount of test compounds ([2]; 4 h): 0.52 mg
The cumulative amount of test compounds ([2]; 8 h): 1.05 mg

CCCC(CCC)OC(=O)[C@@H](N)Cc1ccc(OC(=O)c2ccccc2)c(OC(=O)c2ccccc2)c1.Cl [Compound-12, (S)-4-(2-amino-3-(heptan-4-yloxy)-3-oxopropyl)-1,2-phenylene dibenzoate hydrochloride]
The cumulative amount of test compounds ([3]; 1 h): 0.53 mg
The cumulative amount of test compounds ([3]; 2 h): 1.07 mg
The cumulative amount of test compounds ([3]; 4 h): 2.13 mg
The cumulative amount of test compounds ([3]; 8 h): 4.29 mg
Efficacy of low dose compared with moderate and high dose groups ([1]; Example 36): much higher than that of the moderate and high dose groups

Cl.NCCc1ccc(OC(=O)c2ccccc2)c(OC(=O)c2ccccc2)c1 [Compound-10, 4-(2-aminoethyl)-1,2-phenylene dibenzoate hydrochloride]
The cumulative amount of test compounds ([2]; 1 h): 0.68 mg
The cumulative amount of test compounds ([2]; 2 h): 1.35 mg
The cumulative amount of test compounds ([2]; 4 h): 2.74 mg
The cumulative amount of test compounds ([2]; 8 h): 5.55 mg

CC(C(=O)OCCCCN(C)C)c1cccc(Oc2ccccc2)c1.Cl (stereo not shown) [Drug F, 4-(dimethylamino)butyl 2-(3-phenoxyphenyl) Propionate Hydrochloride]
Efficacy in Rotarod test comparing to vehicle group and positive control group ([1]; Example 35, 20 mg and 60 mg/kg transdermal): good efficacy

CNCC(=O)Oc1cc(C[C@H](NC(=O)OC(C)OC(=O)C(C)C)C(=O)OC(C)C)ccc1OC(=O)c1ccccc1 (stereo partly drawn) [Compound-21(b), 4-((2S)-2-(((1-(isobutyryloxy)ethoxy)carbonyl)amino-3-isopropoxy-3-oxopropyl)-2-(2-(methylamino)acetoxy)phenyl benzoate hydrochloride]
The cumulative amount of test compounds ([3]; 1 h): 0.51 mg
The cumulative amount of test compounds ([3]; 2 h): 1.05 mg
The cumulative amount of test compounds ([3]; 4 h): 2.08 mg
The cumulative amount of test compounds ([3]; 8 h): 4.19 mg
